Source: publication PMC8800111 (The Journal of Biological Chemistry, 2021)

Key:
Format in all cases: cell-based
[1] = molecular target: proteins of U3A human fibrosarcoma cells (4462 proteins detected) (Homo sapiens, UniProt Q8IYW5); settings: protein RNF168; U3A cells
[2] = molecular target: proteins of U3A human fibrosarcoma cells (4462 proteins detected) (Homo sapiens, UniProt P35232); settings: protein PHB; U3A cells
[3] = molecular target: proteins of U3A human fibrosarcoma cells (4462 proteins detected) (Homo sapiens, UniProt P27824); settings: protein CANX; soluble abundance after heat, U3A cells
[4] = molecular target: proteins of U3A human fibrosarcoma cells (4462 proteins detected) (Homo sapiens, UniProt P13796); settings: protein LCP1; soluble abundance after heat, U3A cells
[5] = molecular target: proteins of U3A human fibrosarcoma cells (4462 proteins detected) (Homo sapiens, UniProt Q92585); settings: protein MAML1, U3A cells
[6] = molecular target: proteins of U3A human fibrosarcoma cells (4462 proteins detected) (Homo sapiens, UniProt Q6AI12); settings: protein ANKRD40, U3A cells
[7] = molecular target: proteins of U3A human fibrosarcoma cells (4462 proteins detected) (Homo sapiens, UniProt Q9NX58); settings: protein LYAR; U3A cells
[8] = molecular target: proteins of U3A human fibrosarcoma cells (4462 proteins detected) (Homo sapiens, UniProt Q13829); settings: protein TNFAIP1; U3A cells
[9] = molecular target: proteins of U3A human fibrosarcoma cells (4462 proteins detected) (Homo sapiens, UniProt P82663); settings: protein MRPS25; U3A cells
[10] = molecular target: proteins of U3A human fibrosarcoma cells (4462 proteins detected) (Homo sapiens, UniProt P62805); settings: protein HIST1H4A; U3A, 10 μM, 2 h
[11] = molecular target: proteins of U3A human fibrosarcoma cells (4462 proteins detected) (Homo sapiens, UniProt Q9UK53); settings: protein ING1; U3A, 10 μM, 2 h
[12] = molecular target: proteins of U3A human fibrosarcoma cells (4462 proteins detected) (Homo sapiens, UniProt Q4VC31); settings: protein CCDC58; U3A cells
[13] = molecular target: proteins of U3A human fibrosarcoma cells (4462 proteins detected) (Homo sapiens, UniProt P54709); settings: protein ATP1B3; U3A, 10 μM, 2 h
[14] = molecular target: proteins of U3A human fibrosarcoma cells (4462 proteins detected) (Homo sapiens, UniProt Q5T4S7); settings: protein UBR4; soluble abundance after heat, U3A cells
[15] = molecular target: proteins of U3A human fibrosarcoma cells (4462 proteins detected) (Homo sapiens, UniProt Q9BYG3); settings: protein NIFK; soluble abundance after heat, U3A cells
[16] = molecular target: proteins of U3A human fibrosarcoma cells (4462 proteins detected) (Homo sapiens, UniProt Q8NHQ9); settings: protein DDX55; U3A cells
[17] = molecular target: proteins of U3A human fibrosarcoma cells (4462 proteins detected) (Homo sapiens, UniProt Q8TED0); settings: protein UTP15; U3A cells
[18] = molecular target: proteins of U3A human fibrosarcoma cells (4462 proteins detected) (Homo sapiens, UniProt Q658Y4); settings: protein FAM91A1; soluble abundance after heat, U3A cells
[19] = molecular target: proteins of U3A human fibrosarcoma cells (4462 proteins detected) (Homo sapiens, UniProt O14972); settings: protein DSCR3; U3A, 10 μM, 2 h
[20] = molecular target: proteins of U3A human fibrosarcoma cells (4462 proteins detected) (Homo sapiens, UniProt Q9NTW7); settings: protein ZFP64, U3A cells
[21] = molecular target: proteins of U3A human fibrosarcoma cells (4462 proteins detected) (Homo sapiens, UniProt Q9Y6M5); settings: protein SLC30A1; U3A cells
[22] = molecular target: proteins of U3A human fibrosarcoma cells (4462 proteins detected) (Homo sapiens, UniProt P05023); settings: protein ATP1A1; U3A, 10 μM, 2 h
[23] = molecular target: proteins of U3A human fibrosarcoma cells (4462 proteins detected) (Homo sapiens, UniProt Q8TDP1); settings: protein RNASEH2C, U3A cells
[24] = molecular target: proteins of U3A human fibrosarcoma cells (4462 proteins detected) (Homo sapiens, UniProt P51648); settings: protein ALDH3A2; U3A cells
[25] = molecular target: proteins of U3A human fibrosarcoma cells (4462 proteins detected) (Homo sapiens, UniProt Q7Z6B0); settings: protein CCDC91, U3A cells
[26] = molecular target: proteins of U3A human fibrosarcoma cells (4462 proteins detected) (Homo sapiens, UniProt P52943); settings: protein CRIP2, U3A cells
[27] = molecular target: proteins of U3A human fibrosarcoma cells (4462 proteins detected) (Homo sapiens, UniProt Q9NU23); settings: protein LYRM2; U3A, 10 μM, 2 h
[28] = molecular target: proteins of U3A human fibrosarcoma cells (4462 proteins detected) (Homo sapiens, UniProt O60293); settings: protein ZFC3H1; U3A cells
[29] = molecular target: proteins of U3A human fibrosarcoma cells (4462 proteins detected) (Homo sapiens, UniProt O15294); settings: protein OGT; U3A cells
[30] = molecular target: proteins of U3A human fibrosarcoma cells (4462 proteins detected) (Homo sapiens, UniProt O75396); settings: protein SEC22B; U3A cells
proteins of U3A human fibrosarcoma cells (4462 proteins detected) (Homo sapiens, UniProt O75396), sequence (O75396 whole entry): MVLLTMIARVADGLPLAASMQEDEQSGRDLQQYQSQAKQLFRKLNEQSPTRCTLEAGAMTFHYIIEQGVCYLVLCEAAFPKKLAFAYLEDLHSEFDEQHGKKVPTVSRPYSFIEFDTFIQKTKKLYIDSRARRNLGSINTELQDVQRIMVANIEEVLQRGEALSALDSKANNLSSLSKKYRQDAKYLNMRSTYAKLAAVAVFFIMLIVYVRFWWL

proteins of U3A human fibrosarcoma cells (4462 proteins detected) (Homo sapiens, UniProt Q9UK53), sequence (Q9UK53 whole entry): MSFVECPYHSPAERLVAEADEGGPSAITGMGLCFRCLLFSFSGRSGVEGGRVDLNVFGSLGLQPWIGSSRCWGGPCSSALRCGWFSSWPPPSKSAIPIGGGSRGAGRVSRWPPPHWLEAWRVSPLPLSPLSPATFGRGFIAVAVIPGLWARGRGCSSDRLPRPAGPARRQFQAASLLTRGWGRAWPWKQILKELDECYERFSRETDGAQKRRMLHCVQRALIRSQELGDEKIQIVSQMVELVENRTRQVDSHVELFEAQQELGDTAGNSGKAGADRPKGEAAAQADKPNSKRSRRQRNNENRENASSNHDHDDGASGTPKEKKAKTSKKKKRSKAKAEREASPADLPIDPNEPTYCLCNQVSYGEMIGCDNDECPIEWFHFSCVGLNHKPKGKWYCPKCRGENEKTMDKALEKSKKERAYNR
proteins of U3A human fibrosarcoma cells (4462 proteins detected) (Homo sapiens, UniProt Q4VC31), sequence (Q4VC31 whole entry): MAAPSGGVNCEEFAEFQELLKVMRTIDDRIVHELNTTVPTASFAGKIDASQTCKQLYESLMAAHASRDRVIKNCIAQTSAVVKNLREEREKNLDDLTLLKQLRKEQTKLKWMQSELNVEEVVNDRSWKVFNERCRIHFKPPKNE
proteins of U3A human fibrosarcoma cells (4462 proteins detected) (Homo sapiens, UniProt P35232), sequence (P35232 whole entry): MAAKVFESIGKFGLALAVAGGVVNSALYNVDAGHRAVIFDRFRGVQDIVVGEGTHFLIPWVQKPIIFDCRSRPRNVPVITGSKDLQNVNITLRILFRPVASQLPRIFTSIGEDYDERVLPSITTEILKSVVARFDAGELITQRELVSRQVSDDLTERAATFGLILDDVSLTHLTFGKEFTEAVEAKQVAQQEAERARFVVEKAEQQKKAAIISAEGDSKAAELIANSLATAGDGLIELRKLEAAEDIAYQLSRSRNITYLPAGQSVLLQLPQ
proteins of U3A human fibrosarcoma cells (4462 proteins detected) (Homo sapiens, UniProt P52943), sequence (P52943 whole entry): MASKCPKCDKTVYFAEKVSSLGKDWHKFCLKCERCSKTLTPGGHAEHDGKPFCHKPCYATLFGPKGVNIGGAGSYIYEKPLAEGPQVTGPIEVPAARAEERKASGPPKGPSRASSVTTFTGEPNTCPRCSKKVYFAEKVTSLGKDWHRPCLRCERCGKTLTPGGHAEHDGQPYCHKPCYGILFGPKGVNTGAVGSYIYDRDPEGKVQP
proteins of U3A human fibrosarcoma cells (4462 proteins detected) (Homo sapiens, UniProt Q8TDP1), sequence (Q8TDP1 whole entry): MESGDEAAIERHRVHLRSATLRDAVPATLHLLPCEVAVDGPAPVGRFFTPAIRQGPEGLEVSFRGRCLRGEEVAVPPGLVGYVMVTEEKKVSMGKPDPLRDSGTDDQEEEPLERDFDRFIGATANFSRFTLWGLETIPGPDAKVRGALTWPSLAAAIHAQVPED
proteins of U3A human fibrosarcoma cells (4462 proteins detected) (Homo sapiens, UniProt Q6AI12), sequence (Q6AI12 whole entry): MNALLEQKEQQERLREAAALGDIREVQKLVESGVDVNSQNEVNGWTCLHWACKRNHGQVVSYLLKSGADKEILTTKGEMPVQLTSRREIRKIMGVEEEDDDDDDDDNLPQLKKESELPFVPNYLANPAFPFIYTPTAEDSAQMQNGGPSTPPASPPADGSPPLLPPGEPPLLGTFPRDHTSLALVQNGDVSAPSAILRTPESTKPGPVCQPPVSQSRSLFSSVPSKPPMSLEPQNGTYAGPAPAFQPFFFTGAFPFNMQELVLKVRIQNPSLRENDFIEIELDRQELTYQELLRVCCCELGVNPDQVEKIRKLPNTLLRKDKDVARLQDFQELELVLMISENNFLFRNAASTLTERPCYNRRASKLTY
proteins of U3A human fibrosarcoma cells (4462 proteins detected) (Homo sapiens, UniProt Q8TED0), sequence (Q8TED0 whole entry): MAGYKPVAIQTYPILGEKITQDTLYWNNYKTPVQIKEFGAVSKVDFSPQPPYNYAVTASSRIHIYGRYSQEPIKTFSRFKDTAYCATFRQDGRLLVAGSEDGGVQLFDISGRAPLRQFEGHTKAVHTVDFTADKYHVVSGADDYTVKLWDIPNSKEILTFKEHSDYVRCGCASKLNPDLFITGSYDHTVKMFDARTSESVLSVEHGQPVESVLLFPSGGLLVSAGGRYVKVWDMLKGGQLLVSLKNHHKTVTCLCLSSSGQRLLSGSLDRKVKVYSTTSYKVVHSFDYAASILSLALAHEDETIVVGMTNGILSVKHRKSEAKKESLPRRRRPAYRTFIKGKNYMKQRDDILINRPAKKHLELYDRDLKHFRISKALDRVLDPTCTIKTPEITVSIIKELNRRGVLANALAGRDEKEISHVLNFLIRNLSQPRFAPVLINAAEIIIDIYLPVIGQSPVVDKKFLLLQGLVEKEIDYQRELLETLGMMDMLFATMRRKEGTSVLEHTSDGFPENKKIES
proteins of U3A human fibrosarcoma cells (4462 proteins detected) (Homo sapiens, UniProt Q13829), sequence (Q13829 whole entry): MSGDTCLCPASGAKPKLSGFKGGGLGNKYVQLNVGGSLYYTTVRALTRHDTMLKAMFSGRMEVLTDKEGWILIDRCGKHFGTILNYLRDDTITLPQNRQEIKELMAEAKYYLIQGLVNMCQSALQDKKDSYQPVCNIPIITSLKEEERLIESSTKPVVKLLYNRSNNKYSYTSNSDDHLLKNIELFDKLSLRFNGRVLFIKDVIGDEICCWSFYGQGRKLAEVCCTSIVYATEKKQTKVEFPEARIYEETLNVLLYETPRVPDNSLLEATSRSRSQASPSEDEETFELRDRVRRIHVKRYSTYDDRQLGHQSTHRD
proteins of U3A human fibrosarcoma cells (4462 proteins detected) (Homo sapiens, UniProt Q7Z6B0), sequence (Q7Z6B0 whole entry): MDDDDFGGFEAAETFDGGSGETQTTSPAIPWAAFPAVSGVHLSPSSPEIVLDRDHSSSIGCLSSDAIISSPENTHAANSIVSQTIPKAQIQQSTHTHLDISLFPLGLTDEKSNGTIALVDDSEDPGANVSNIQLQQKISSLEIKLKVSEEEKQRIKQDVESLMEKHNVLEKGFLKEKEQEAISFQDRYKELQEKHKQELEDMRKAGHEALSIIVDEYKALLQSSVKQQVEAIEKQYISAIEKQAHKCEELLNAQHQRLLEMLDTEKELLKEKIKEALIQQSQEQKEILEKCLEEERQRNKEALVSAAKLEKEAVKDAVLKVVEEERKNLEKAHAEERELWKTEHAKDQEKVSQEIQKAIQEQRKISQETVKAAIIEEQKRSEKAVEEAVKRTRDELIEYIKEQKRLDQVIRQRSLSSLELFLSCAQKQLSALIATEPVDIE
proteins of U3A human fibrosarcoma cells (4462 proteins detected) (Homo sapiens, UniProt Q9BYG3), sequence (Q9BYG3 whole entry): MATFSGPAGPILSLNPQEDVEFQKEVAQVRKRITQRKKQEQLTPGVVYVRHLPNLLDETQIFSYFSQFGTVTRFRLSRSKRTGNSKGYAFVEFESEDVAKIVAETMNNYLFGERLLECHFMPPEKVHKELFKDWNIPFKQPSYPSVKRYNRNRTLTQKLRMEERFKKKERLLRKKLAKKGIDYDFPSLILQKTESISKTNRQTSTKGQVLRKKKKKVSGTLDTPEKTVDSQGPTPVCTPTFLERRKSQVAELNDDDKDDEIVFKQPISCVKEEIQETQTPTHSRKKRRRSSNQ
proteins of U3A human fibrosarcoma cells (4462 proteins detected) (Homo sapiens, UniProt Q9NU23), sequence (Q9NU23 20-88): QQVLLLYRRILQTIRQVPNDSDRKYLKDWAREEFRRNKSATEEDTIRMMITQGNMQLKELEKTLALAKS
proteins of U3A human fibrosarcoma cells (4462 proteins detected) (Homo sapiens, UniProt P27824), sequence (P27824 21-592): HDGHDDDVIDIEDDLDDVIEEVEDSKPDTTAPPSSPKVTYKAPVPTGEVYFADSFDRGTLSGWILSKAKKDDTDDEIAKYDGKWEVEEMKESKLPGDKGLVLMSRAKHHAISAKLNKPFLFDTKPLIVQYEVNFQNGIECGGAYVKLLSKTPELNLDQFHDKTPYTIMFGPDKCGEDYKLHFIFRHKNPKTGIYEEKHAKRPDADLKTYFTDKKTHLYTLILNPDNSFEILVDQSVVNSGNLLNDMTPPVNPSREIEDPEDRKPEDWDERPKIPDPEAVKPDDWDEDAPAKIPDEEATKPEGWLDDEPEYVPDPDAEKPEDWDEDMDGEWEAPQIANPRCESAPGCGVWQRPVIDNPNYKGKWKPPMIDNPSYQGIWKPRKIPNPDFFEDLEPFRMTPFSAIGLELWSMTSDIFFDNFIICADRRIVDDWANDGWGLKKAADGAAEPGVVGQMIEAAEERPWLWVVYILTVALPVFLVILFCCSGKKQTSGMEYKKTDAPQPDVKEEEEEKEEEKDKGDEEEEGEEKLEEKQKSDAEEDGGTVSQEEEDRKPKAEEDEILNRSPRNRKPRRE
proteins of U3A human fibrosarcoma cells (4462 proteins detected) (Homo sapiens, UniProt P51648), sequence (P51648 whole entry): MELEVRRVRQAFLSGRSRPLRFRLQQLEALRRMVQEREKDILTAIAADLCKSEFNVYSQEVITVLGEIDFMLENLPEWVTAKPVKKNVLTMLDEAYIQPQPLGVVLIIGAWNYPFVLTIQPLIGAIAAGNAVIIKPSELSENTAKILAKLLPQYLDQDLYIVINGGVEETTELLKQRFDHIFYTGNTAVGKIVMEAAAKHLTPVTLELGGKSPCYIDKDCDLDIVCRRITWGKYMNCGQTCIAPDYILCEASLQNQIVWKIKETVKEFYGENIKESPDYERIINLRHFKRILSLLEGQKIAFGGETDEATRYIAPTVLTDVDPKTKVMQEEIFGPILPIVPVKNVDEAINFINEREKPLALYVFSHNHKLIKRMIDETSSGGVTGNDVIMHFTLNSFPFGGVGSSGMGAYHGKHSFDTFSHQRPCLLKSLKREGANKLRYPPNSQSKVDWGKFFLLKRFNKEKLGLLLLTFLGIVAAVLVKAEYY
proteins of U3A human fibrosarcoma cells (4462 proteins detected) (Homo sapiens, UniProt O14972), sequence (O14972 whole entry): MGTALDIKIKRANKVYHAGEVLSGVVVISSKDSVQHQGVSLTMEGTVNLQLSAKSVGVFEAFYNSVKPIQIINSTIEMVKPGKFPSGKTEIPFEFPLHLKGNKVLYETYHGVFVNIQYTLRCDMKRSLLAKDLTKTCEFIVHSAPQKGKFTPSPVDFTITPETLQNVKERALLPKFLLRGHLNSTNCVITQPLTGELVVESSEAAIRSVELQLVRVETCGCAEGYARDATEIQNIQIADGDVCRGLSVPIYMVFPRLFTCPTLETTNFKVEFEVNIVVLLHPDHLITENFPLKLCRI

CCc1nc(N)nc(N)c1-c1ccc(Cl)cc1 [pyrimethamine]
Log2 (PYR/DMSO) [1]: 0.17
Log2 (PYR/DMSO) [2]: 0.16
Log2 (PYR/DMSO) [3]: 0.14
Log2 (PYR/DMSO) [4]: 0.15
Log2 (PYR/DMSO) [5]: -0.04
Log2 (PYR/DMSO) [6]: -0.04
Log2 (PYR/DMSO) [7]: 0.18
Log2 (PYR/DMSO) [8]: 0.21
Log2 (PYR/DMSO) [9]: 0.17
Log2 (PYR/DMSO), HIST1H4A [10]: 0.28
Log2 (PYR/DMSO), ING1 [11]: -0.22
Log2 (PYR/DMSO) [12]: 0.20
Log2 (PYR/DMSO), ATP1B3 [13]: 0.27
Log2 (PYR/DMSO) [14]: 0.14
Log2 (PYR/DMSO) [15]: 0.14
Log2 (PYR/DMSO) [16]: 0.23
Log2 (PYR/DMSO) [17]: 0.16
Log2 (PYR/DMSO) [18]: 0.14
Log2 (PYR/DMSO), DSCR3 [19]: -0.16
Log2 (PYR/DMSO) [20]: -0.04
Log2 (PYR/DMSO) [21]: 0.16
Log2 (PYR/DMSO), ATP1A1 [22]: 0.37
Log2 (PYR/DMSO) [23]: -0.03
Log2 (PYR/DMSO) [24]: 0.16
Log2 (PYR/DMSO) [25]: -0.04
Log2 (PYR/DMSO) [26]: -0.04
Log2 (PYR/DMSO), LYRM2 [27]: 0.27
Log2 (PYR/DMSO) [28]: 0.18
Log2 (PYR/DMSO) [29]: 0.16
Log2 (PYR/DMSO) [30]: 0.21
